# Test results taken from paper PMC10279527, “Structural basis of metabolite transport by the chloroplast outer envelope channel OEP21” (Nature Structural & Molecular Biology, 2023).
# “And” between values parts separate entries of the source, which are not always exact repeats. Equal values may be shown once.
# Columns and labels:
# [1] = ITC of ATP, GAP or phosphate with magnesium; assay type: binding; conditions: 10 mM HEPES pH7.0, 20 mM NaCl, read-out: KD for Mg^2+
# Method: ITC experiments were performed with a MicroCal PEAQ-ITC instrument (Malvern Panalytical) at 25 °C in 10 mM HEPES pH 7.0, 20 mM NaCl, 0.5 mM EDTA, 1 mM DTT, 50 mM LDAO. […] Curve fitting and data analysis were done with the Malvern PEAQ-ITC software.
# (a) (left) 2D-[^15N,^1H]-TROSY NMR spectra of 400 µM ^2H,^15N-labeled OmpX in LDAO micelles in 20 mM sodium phosphate, pH6.0, 50 mM NaCl, 0.5 mM EDTA and the indicated concentrations of D-GAP at 30 °C and 1.2 GHz magnetic field. (right) 2D-projections along the ^1H dimension of the 2D-spectra shown on (left). […] (right) Relative NMR peak intensities derived from the data in (left) and (middle). Buffer: 10 mM Na-phosphate pH7.0, 20 mM NaCl, 7% (v/v) D2O. […] (right) 150 mM MgCl2 was titrated into 15 mM potassium phosphate (Pi). Buffer conditions for all experiments were: 10 mM HEPES pH7.0, 20 mM NaCl.
# [2] = biological target: T1, OEP21ΔL5 (Pisum sativum, UniProt Q9SM57, DEL70-80); assay: NMR titrations of OEP21ΔL5 with metabolites; assay type: binding, garden pea; conditions: for Kd: KDs dLoop + GAP, dLoop (OEP21ΔL5), unit inferred
# T1 construct: made in house; host or cells: Escherichia coli BL21(DE3) (described for OEP21)
# T1 sequence (Q9SM57 other isoform, or with tags, fused parts or gaps DEL70-80): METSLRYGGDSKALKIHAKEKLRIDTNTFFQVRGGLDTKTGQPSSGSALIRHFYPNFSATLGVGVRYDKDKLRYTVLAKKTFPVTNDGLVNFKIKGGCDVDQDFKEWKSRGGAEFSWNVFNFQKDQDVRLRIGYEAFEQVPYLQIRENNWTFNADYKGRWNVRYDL
structure (smiles),measurement,setting,value
"O=C[C@H](O)COP(=O)(O)O [GAP, D-glyceraldehyde-3-phosphate]",Kd,[1],~9000 µM and 9000 µM
same,Kd,"[2]; Mean, mean",730 µM
same,Kd,[2]; individual KDs,702 µM and 649 µM and 747 µM and 728 µM and 616 µM and 657 µM and 634 µM and 730 µM and 906 µM and 897 µM and 764 µM
same,effect of L5 on binding affinity (in words),"[2]; NMR, Fig. 3h, OEP21 versus OEP21ΔL5",approximately a fourfold increase in binding affinity
